Measured values as given in patent publication US20250249056A1, “CANCER THERAPIES COMPRISING A NUCLEAR EXPORT INHIBITOR AND AN ONCOLYTIC VIRUS” (priority 2022, published 2025).

Tests used:
[1] = system: PANC-1 xenograft tumors; test: PANC-1 xenograft tumor model in NSG mice; assay type: in vivo
Method: Based on the in vivo results showing selinexor enhances MYXV replication in the tumor bed and reduces the tumor burden in Colo205 and HT29 xenograft tumors, the treatment was examined in PANC-1 xenograft tumors. Human PANC-1 cells were injected subcutaneously on both sides of the flank to generate tumors (FIG. 11A). After the tumor size reached ˜50-100 mm^3 (2-3 weeks), animals were randomly assigned to treatment groups to have approximately equal average tumor size. Animals (n=6) were then treated with PBS, selinexor, MYXV, or selinexor+MYXV. Animals received a total of four treatments within the first two weeks and tumor burden was measured 2-3 times every week. After the first treatment, mice were imaged using the IVIS system for luciferase expression at 24 and 72 hours post-treatment (FIG. 11B and FIG. 11C). […] After imaging and measuring luciferase signals, three additional treatments to test their therapeutic effect on tumor burden and survival were administered.
Luciferase signals in animals were also measured before the endpoint to confirm the presence of the virus in the tumor bed after the final (fourth) injection. […] Luciferase signal was measured again 23 days after the last viral injection, at which point high luciferase activity was still observed in each group (FIG. 13C). At the endpoint, tumors were collected and virus titration assays were performed (FIG. 13D). […] In both tumors, although not significant, viral load was higher in selinexor+MYXV treated mice than mice treated with MYXV alone.
Animal Studies: Male and female NSG mice were purchased from Jackson laboratory at 6-8 weeks of age. Animals were housed under sterile conditions. The animals were acclimatized for at least seven days before tumor implantation or any experimental procedures. Cells (1×10^6/mouse in 100 μL PBS) were subcutaneously injected into the flanks of NSG mice. […] Tumor volume was measured two or three times per week as follows: volume=(length×width^2)/2. […]

[2] = system: MYXV; test: MYXV infection of 3D spheroid cultures of human cancer cells (GFP/TdTomato fluorescence); assay type: cell-based, myxoma virus
Text: In vitro three-dimensional (3D) cell culture allows cells to contact each other and form a platform representing in vivo tumor masses (Lv, D., et al., 2017, Oncology Letters, 14:6999-7010). As an initial test whether selinexor can enhance MYXV replication in tumor masses, a 3D cell culture using type 1 collagen was established. The semi-permissive and non-permissive human cancer cells PANC-1 (FIG. 6A), MDA-MB435 (FIG. 6C), HT29 (FIG. 6E), and Colo205 (FIG. 6G) were used to form 3D spheroids in 96 well plates. After several days of incubation, the cells formed spheroids.
After reaching a desirable size, spheroids were mock-treated or treated with different concentrations of selinexor (e.g., 0.1 μM, 1 μM) for one hour then infected with vMyx-GFP-TdTomato (1×10^7 FFU) in the presence of selinexor.
Spheroid Generation and Virus Infection: Different cancer cell lines were grown and maintained as previously described and used for spheroid generation within 2-5 passages. 96-well plates were prepared with rat tail collagen I to form the surface for spheroid culture. On the day of cell seeding for spheroid generation, the cells were dissociated with TrypLE, the TrypLE neutralized with fresh complete media, the cells spun down, and resuspended in fresh complete media. After making a single cell suspension, cells were counted using a Countess II automated cell counter and 1000 cells in 100 μL were plated on the surface of the collagen matrix. The cells were observed daily for spheroid formation. After 5-7 days, when spheroids reached the desired size, they were treated with selinexor and infected with vMyx-GFP-TdTomato.

O=C(/C=C\n1cnc(-c2cc(C(F)(F)F)cc(C(F)(F)F)c2)n1)NNc1cnccn1 [selinexor]
luciferase signals (IVIS) vs virus alone ([1]; 24 and 72 hours after first treatment): significantly higher levels of luciferase signals
tumor burden compared to PBS or MYXV alone ([1]; four treatments within first two weeks): significant reduction in tumor burden
survival compared to PBS or MYXV alone ([1]; mouse, in vivo): survived significantly longer
GFP (early/late) and TdTomato (late) expression in spheroids by fluorescence microscopy ([2]; PANC-1, MDA-MB435, HT29, Colo205 spheroids, selinexor 0.1 or 1 μM, vMyx-GFP-TdTomato 1×10^7 FFU): enhanced
virus penetration into spheroids ([2]; selinexor plus MYXV compared to MYXV infection alone): greater penetration into the spheroid interior
quantification of GFP fluorescence in spheroids ([2]; selinexor-treated vs untreated infected spheroids, 72-96 h post-infection): significant increase in the level of GFP expression
